Experimental data from the NIST ThermoML archive (doi:10.1021/acs.jced.5b00242).

Test: xn = mol fraction of the nth substance listed
Conditions: 101 kPa, Liquid; for viscosity: Stabinger viscometer; for mass density: Vibrating tube method

CCn1cc[n+](C)c1.NCC(=O)[O-] [1-ethyl-3-methylimidazolium ammonioacetate] + CCn1cc[n+](C)c1.N#C[C-](C#N)C#N
Conditions	mass density, x2 = 0 [kg/m3]	mass density, x2 = 0.2498 [kg/m3]	mass density, x2 = 0.5001 [kg/m3]	mass density, x2 = 0.7501 [kg/m3]	viscosity, x2 = 0 [mPa·s]	viscosity, x2 = 0.2498 [mPa·s]	viscosity, x2 = 0.5001 [mPa·s]	viscosity, x2 = 0.7501 [mPa·s]
308.15 K	1155	1130.5	1108.4	1091	–	–	27.19	16.35
313.15 K	1152	1127.3	1105.2	1087.7	73.5	34.81	22.25	13.9
318.15 K	1149	1124.3	1102.1	1084.4	57.66	28.43	18.69	12.02
323.15 K	1146	1121.1	1098.9	1081	46.21	23.59	15.89	10.47
328.15 K	1143	1118	1095.7	1077.7	37.66	19.87	13.84	9.21
333.15 K	1139.9	1114.8	1092.5	1074.5	31.24	16.92	11.88	8.12
338.15 K	1136.9	1111.7	1089.3	1071.2	26.08	14.58	10.47	7.29
343.15 K	1133.8	1108.6	1086.1	1068	22.11	12.67	9.233	6.55
348.15 K	1130.7	1105.5	1082.9	1064.7	18.95	11.1	8.191	5.92
353.15 K	1127.4	1102.4	1079.7	1061.5	16.45	9.77	7.189	5.35
